These results are taken from paper PMC7139703, “Thiopurine Derivative-Induced Fpg/Nei DNA Glycosylase Inhibition: Structural, Dynamic and Functional Insights” (International Journal of Molecular Sciences, 2020).

Test [1] deals with T1, hNeil1 (Homo sapiens, UniProt Q96FI4). The test can be described thus: hNeil1 DNA glycosylase/AP lyase activity assay on DHU:G 24-mer duplex. It is filed as biochemical. Further details: Overproduction was performed as described above for full length hNeil1; 6His (C); made in house; host or cells: E. coli Rosetta2 (DE3). The settings on record: for effect on hNeil1 catalytic activity: 0.2 mM compound. Here is the method:
Figure 4 Comparative analysis of the effect of 2TX and TXn on Fpg/Nei DNA glycosylases. Enzyme activities were measured as described in the Figure 1 legend using […] of a 5′-[^32P]-24-mer DNA duplex containing either an 8-oxoG opposite C for LlFpg or a […] (DHU) opposite G for hNeil1 and mvNei1. The DNA probe was incubated with the indicated protein concentration and 0.2 mM TXn compounds in the presence or absence of 1 mM dithiothreitol (DTT) and TCEP (a representative experiment is illustrated by the upper histograms). The DNA probe for EMSA was 0.1 nM of 5′-[^32P]-[…] DNA duplex containing THF with LlFpg and mvNei1 (bottom panels: gel autoradiography) with the indicated conditions and as described in ‘Materials and Methods’.
Fpg, hNeil1 and mvNei1 are bifunctional DNA glycosylases associated with concerted DNA glycosylase activity (cleavage of the N-glycosidic bond between the base lesion and the C1′ of the deoxyribose) and AP lyase activity that comprises the successive cleavage of the phosphodiester bonds at the 3′ and 5′ of the resulting abasic (AP) site, respectively (β, δ-elimination). Thus, AP sites that result from the excision of the damaged base are quantitatively converted into one nucleoside gap by these enzymes. The DNA glycosylase/AP lyase activity of each enzyme was measured by incubating 20 nM of 24-mer DNA duplexes ([OG:C] and [DHU:G] for Fpg and hNeil1/mvNei1, respectively) 5′-labeling on the damaged strand (see above) with 2 nM of Fpg, or mvNei1 for 15 min or, with 20 nM of hNeil1 for 30 min at 37 °C in 10 mM Tris-HCl, pH 7.6, 150 mM NaCl, 1 mM EDTA, 0.1 mg/mL BSA and 8% DMSO. The reaction was stopped by the addition of 1 volume of formamide loading buffer (96% formamide, 20 mM Tris/HCl pH 8.0 and 2 mM Na2EDTA), heated at 80 °C for 2 min and then analyzed by 20% Urea-PAGE, as previously described. […] Under these conditions, only 50% of the substrate is converted to the cleavage product (limiting enzyme concentration conditions). For an initial evaluation of the inhibitory effect, 40 µM of 2TX/TXn was used. The thio-compound was added to the reaction mixture before the final addition of the enzyme (competition condition). For the best identified inhibitors, a dose-response curve was generated and IC50^A determined (Figure 1 and Table 1).
Target sequence in this assay (Q96FI4 whole entry): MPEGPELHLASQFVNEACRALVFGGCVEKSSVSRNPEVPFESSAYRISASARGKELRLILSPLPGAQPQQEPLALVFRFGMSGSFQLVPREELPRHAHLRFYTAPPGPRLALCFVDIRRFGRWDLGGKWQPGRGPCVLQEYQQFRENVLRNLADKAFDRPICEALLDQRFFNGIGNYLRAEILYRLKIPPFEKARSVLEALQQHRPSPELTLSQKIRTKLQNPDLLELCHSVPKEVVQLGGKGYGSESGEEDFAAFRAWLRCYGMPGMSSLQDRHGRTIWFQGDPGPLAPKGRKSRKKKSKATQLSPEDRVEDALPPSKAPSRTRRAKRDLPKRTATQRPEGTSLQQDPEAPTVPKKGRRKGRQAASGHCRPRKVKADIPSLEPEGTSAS

The next test has as its target T2, LlFpg/DNA complex C1 (Lactococcus lactis subsp. cremoris, UniProt P42371).
T2 construct: made in house; host or cells: E. coli BH540 (fpg defective)
The experiment in a line: EMSA, Fpg DNA binding to 14-mer [THF:C] duplex, complex C1 (lesion recognition complex, Fpg/DNA 1/1). The settings on record: pre-incubation of Fpg 20 min at 4 °C; micromolar to millimolar inhibitor. Background: Mobility shift assays separate free from complexed probe on a gel.

Another test addresses T3, LlFpg (Lactococcus lactis subsp. cremoris, UniProt P42371).
T3 construct: made in house; host or cells: E. coli BH540 (fpg defective)
The experiment in a line: Enzyme kinetics of 8-oxoG excision by LlFpg in the presence of 2TX (double-reciprocal, Dixon, Cornish-Bowden plots). It is filed as biochemical. The source says: Kinetic experiments with LlFpg in the presence of 2TX partially support this last hypothesis (Figure S3). Although LlFpg was inhibited by 2TX, as was its E. coli homolog (EcFpg), the raw kinetic data from all the experiments appeared to be very complicated and difficult to interpret. […] In this case, no inhibitory constant (Ki) can be determined. This mechanism (also supported by the inhibition suppression by TCEP, Figure S2) is likely superimposed on other inhibitory mechanisms, a factor that makes it difficult to analyze kinetic data. To clarify, we separately analyzed kinetic data obtained for low and high 2TX concentrations (Figure S3). As expected, we observed a linear dependence of the reciprocal velocity (1/v) as a function of the reciprocal substrate concentrations (1/S) with and without the inhibitor. […] These values compare well with those determined previously for the excision of FapyG and 8-oxoG by EcFpg. […] This value is consistent with an interaction of 2TX in the active site of the enzyme. This inhibitory mechanism has not been previously described for the EcFpg enzyme. […] This mode of inhibition is in agreement with the possibility that 2TX can bind outside the active site on the free and bound enzyme. […]

In test [2] the target is T1, hNeil1. The experiment in a line: EMSA, hNeil1 DNA binding to THF-containing DNA duplex. The settings on record: Figure 4.
Target sequence in this assay (Q96FI4 2-290 limits assumed): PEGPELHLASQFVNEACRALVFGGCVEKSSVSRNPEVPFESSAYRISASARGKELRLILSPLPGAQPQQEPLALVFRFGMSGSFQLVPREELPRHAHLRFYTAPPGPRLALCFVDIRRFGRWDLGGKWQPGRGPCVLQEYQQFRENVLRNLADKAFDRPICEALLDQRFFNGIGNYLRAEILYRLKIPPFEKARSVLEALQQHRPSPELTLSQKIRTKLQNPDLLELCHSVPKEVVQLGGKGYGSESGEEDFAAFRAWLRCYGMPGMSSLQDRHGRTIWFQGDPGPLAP
[3] abbreviates: catalytic activity at 37 °C, compound stock in DMSO, DHU:G 24-mer, read-out: IC50app^A (Fpg/Nei enzyme catalysis) hNEIL1.

Like-named read-outs stand apart in the source and are kept apart here. A value given as a limit tells only on which side of the number the result lay.

T3 sequence (P42371 2-273): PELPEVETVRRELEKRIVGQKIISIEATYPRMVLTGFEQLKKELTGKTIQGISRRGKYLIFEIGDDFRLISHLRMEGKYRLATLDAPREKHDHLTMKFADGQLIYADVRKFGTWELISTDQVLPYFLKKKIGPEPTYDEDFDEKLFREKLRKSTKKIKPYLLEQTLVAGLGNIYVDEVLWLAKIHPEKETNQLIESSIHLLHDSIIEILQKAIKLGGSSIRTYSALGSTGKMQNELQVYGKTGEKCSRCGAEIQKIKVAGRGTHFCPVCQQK
T2 sequence (P42371 2-273, one chain of several): as the sequence (P42371 2-273) above

On to `O=c1[nH]c2[nH]c(=S)[nH]c(=O)c2[nH]1` [TX14, 2-thio-6,8-dioxopurine], for which, on hNeil1 [1] (setting [3]), the IC50 is greater than 500 µM.

With `Nc1ncnc2[nH]c(S)nc12` [TX27], the IC50 on hNeil1 [1] (setting [3]) came to 160 ± 16 µM.

As for `O=c1[nH]c(=S)[nH]c2nc[nH]c12` [Compound 2TX, 2-thioxanthine, reference compound], the “effect on hNeil1 catalytic activity” value at hNeil1 [1] (Figure 4) is “did not significantly affect”. The IC50 on hNeil1 [1] (setting [3]) is greater than 500 µM. Besides, the “Fpg ability to bind DNA after pre-incubation with inhibitor” value at LlFpg/DNA complex C1 was “completely abolished”. In addition, the Ki turned out to be 24.9 ± 6.56 µM at LlFpg (high 2TX concentrations, uncompetitive, read-out: apparent Ki (Kiu)) and 2.19 ± 0.56 µM on LlFpg (low 2TX concentrations, partially competitive, read-out: apparent Ki (Kic)).

At hNeil1 [1], `FC(F)(F)c1nc(S)c2nc[nH]c2n1` [TX13, 2-trifluoromethyl-6-thiopurine] returned an IC50 greater than 250 µM.

Take `O=c1[nH]c(=S)[nH]c2[nH]c(=S)[nH]c12` [TX19]: the “effect on hNeil1 DNA binding activity” value on hNeil1 [2] was “apparent inhibitory effects”. In addition, at hNeil1 [1] (Figure 4), the “effect on hNeil1 catalytic activity” value is given as “apparent inhibitory effects”. For the same compound, the “inhibition of hNeil1 DNA binding and catalytic activities in the presence of TCEP” value on hNeil1 [1] (1 mM TCEP (DTT to a lesser extent), Figure 4) is on record as “suppressed”. Moreover, the IC50 on hNeil1 [1] (setting [3]) came to 19 ± 1 µM.
